According to ChEMBL document CHEMBL1201862, “PubChem BioAssay data set” (2004):
Calls of active or inactive are those of the source.

Columns and labels:
[1] = molecular target: T1, Alkaline phosphatase, tissue-nonspecific isozyme (Homo sapiens, UniProt P05186); test: inhibition of tissue-nonspecific alkaline phosphatase – biochemical, dose response (AID 488882); format: functional
T1 sequence (P05186 whole entry): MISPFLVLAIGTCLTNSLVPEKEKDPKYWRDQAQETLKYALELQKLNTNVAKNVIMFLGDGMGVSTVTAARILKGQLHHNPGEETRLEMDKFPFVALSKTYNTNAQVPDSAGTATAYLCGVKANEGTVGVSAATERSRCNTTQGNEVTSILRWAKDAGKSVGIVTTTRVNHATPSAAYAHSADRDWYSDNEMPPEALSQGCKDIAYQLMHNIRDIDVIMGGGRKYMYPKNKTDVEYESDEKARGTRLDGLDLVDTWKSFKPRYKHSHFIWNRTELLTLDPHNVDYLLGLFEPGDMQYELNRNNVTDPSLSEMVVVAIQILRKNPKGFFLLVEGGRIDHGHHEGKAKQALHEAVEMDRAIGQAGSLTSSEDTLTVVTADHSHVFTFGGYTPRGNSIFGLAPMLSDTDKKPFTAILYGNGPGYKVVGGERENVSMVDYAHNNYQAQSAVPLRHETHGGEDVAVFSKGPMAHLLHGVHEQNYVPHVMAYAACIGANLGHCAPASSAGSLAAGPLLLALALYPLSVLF

[2] = molecular target: T2, Intestinal-type alkaline phosphatase (Homo sapiens, UniProt P09923); test: Dose Response confirmation of uHTS hits from a small molecule inhibitors of human intestinal alkaline phosphatase via a luminescent assay. [Related pubchem assays (depositor defined):AID2544, AID2574]; format: functional
[3] = molecular target: Intestinal-type alkaline phosphatase (Mus musculus, UniProt P24822); test: PubChem AID 488874; format: functional
[4] = molecular target: T2, Intestinal-type alkaline phosphatase; test: human IAP inhibitors, dose response, biochemical, luminescent, uHTS hits, set 2 (AID 488793); format: functional
[5] = molecular target: UDP-galactopyranose mutase (Mycobacterium tuberculosis, UniProt P9WIQ1); test: Inhibitors of Mycobacterium tuberculosis UDP-galactopyranose mutase (UGM) enzyme Measured in Biochemical System Using Plate Reader - 2105-02_Inhibitor_Dose_CherryPick_Activity. [Related pubchem assays (depositor defined):AID504439]
[6] = molecular target: T3, Endoribonuclease toxin MazF (Escherichia coli K-12, UniProt P0AE70); test: MazF toxin RNase activators, dose response, biochemical, fluorescence, single-stranded RNA substrate, uHTS hits (AID 588481); format: functional
T3 sequence (P0AE70 whole entry): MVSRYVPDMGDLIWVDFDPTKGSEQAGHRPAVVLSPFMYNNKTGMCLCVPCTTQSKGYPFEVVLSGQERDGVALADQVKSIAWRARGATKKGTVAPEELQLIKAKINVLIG

[7] = molecular target: T4, RNA-binding protein pos-1 (Caenorhabditis elegans, UniProt G5EF15); test: inhibitors of POS-1/mex-3 RNA binding, dose response, biochemical, fluorescence polarization (AID 1964);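 note: purified POS-1 fused to maltose binding protein made in E. coli; potency of compounds blocking POS-1 binding to fluorescent RNA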
T4 sequence (G5EF15 whole entry): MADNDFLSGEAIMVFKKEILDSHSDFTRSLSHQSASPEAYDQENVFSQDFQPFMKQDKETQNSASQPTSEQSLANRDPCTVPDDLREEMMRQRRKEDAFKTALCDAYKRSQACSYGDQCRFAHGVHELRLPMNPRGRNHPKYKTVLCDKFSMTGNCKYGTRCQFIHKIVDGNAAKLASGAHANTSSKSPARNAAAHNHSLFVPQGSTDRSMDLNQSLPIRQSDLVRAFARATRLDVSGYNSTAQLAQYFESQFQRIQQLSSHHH

[8] = molecular target: T5, Zinc finger protein mex-5 (Caenorhabditis elegans, UniProt Q9XUB2); test: MEX-5/TCR-2 RNA interaction inhibitors, dose response, biochemical, C. elegans, fluorescence polarization (AID 1960)
T5 sequence (Q9XUB2 whole entry): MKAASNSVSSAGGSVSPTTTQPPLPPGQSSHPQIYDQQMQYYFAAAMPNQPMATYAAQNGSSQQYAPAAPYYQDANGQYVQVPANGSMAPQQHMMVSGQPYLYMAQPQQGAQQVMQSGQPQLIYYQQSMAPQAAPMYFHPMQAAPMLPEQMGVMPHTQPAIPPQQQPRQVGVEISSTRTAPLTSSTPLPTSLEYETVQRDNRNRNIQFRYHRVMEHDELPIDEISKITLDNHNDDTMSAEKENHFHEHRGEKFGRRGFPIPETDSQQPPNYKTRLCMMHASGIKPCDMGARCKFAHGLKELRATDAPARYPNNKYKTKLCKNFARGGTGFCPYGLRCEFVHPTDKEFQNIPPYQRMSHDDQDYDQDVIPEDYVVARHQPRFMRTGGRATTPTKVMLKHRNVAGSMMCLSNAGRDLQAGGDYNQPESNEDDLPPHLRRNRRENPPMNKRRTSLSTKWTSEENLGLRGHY

[9] = molecular target: T3, Endoribonuclease toxin MazF; test: fluorescent RNA oligo signal without MazF, dose response, counter-screen for MazEF activator project, biochemical, fluorescence, single-stranded RNase substrate (AID 588502); format: functional
[10] = Luminescence Cell-Based Dose Retest to Confirm Inhibitors of Cancer Stem Cells. [Related pubchem assays (depositor defined):AID2717, AID2721]; format: functional; conditions: Homo sapiens
CAAX prenyl protease 2 = molecular target: T6, CAAX prenyl protease 2 (Saccharomyces cerevisiae S288c, UniProt Q03530); format: biochemical
T6 sequence (Q03530 whole entry): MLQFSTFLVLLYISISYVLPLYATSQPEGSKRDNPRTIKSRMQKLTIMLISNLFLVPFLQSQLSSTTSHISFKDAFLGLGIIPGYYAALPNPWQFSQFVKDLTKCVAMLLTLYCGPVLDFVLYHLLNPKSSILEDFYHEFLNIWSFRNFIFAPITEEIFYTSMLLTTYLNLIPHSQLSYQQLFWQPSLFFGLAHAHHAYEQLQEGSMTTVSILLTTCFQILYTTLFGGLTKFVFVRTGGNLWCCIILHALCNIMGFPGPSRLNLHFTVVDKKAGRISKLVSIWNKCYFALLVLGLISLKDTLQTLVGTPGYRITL

[11] = cytotoxicity in HMLE control line with eGFP shRNA, dose response, counter-screen for HMLE_sh_ECad selective toxicity project, cell-based, HMLE_sh_eGFP, luminescence (AID 463074); format: functional, Homo sapiens;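 note: HMLE human mammary epithelial cells expressing control shRNA against eGFP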
Cytochrome P450 2C19 = Cytochrome P450 2C19 (Homo sapiens, UniProt P33261); test: Cytochrome panel assay with activity outcomes. Panel member name: p450-cyp2c19 Compounds with AC50 equal or less than 10 uM are considered active; format: functional
Cytochrome P450 1A2 = molecular target: T7, Cytochrome P450 1A2 (Homo sapiens, UniProt P05177);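 note: PubChem cytochrome P450 panel assay, CYP1A2 panel member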
T7 sequence (P05177 whole entry): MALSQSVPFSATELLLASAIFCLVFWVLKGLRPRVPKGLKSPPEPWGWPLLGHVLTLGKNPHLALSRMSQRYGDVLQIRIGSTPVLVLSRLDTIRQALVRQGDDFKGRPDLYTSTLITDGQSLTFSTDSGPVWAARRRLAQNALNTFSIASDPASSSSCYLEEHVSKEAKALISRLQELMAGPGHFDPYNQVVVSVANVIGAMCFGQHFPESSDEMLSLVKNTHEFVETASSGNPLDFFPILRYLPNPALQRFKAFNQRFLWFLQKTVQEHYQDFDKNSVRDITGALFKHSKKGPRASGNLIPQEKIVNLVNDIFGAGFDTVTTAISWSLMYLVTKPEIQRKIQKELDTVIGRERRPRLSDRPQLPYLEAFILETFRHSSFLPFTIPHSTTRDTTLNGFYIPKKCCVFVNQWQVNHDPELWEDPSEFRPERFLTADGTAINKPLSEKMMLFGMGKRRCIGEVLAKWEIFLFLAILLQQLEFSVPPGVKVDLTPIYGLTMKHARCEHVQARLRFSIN

[12] = inhibitors of Trypanosoma cruzi host-cell infection, confirmation, beta-gal luminescence, NIH3T3 host cells (AID 2630); format: functional, cell-based; conditions: Mus musculus
Escherichia coli = test: microbe, parasite or virus in culture
Aspartyl aminopeptidase = molecular target: T8, Aspartyl aminopeptidase (Plasmodium falciparum 3D7, UniProt Q8I2J3); test: Counterscreen for inhibitors of M1 and M17 aminopeptidases: QFRET-based biochemical high throughput dose response assay for inhibitors of the Plasmodium falciparum M18 Aspartyl Aminopeptidase (PFM18AAP). [Related PubChem assays: 1619 (Screening assay (M17LAP inhibitors).), 1445 (Screening assay (M1AAP inhibitors).)]
T8 sequence (Q8I2J3 whole entry): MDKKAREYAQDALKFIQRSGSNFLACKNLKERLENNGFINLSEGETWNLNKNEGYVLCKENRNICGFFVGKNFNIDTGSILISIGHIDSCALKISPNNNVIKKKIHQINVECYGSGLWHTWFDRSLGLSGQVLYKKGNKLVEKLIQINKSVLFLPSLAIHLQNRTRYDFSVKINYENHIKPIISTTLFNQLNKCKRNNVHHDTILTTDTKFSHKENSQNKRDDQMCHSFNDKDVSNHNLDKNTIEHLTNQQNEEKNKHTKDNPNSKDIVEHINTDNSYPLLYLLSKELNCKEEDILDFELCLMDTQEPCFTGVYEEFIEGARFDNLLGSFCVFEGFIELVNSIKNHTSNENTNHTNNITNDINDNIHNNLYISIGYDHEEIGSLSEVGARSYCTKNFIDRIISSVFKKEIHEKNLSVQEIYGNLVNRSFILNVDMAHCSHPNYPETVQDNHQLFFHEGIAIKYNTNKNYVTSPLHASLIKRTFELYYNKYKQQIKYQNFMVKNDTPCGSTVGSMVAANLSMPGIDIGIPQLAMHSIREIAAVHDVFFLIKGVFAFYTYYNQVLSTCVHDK

[13] = molecular target: T9, Mannose-6-phosphate isomerase (Homo sapiens, UniProt P34949); test: PMI enzyme inhibitors, confirmation, biochemical, fluorescence intensity (AID 1535)
T9 sequence (P34949 whole entry): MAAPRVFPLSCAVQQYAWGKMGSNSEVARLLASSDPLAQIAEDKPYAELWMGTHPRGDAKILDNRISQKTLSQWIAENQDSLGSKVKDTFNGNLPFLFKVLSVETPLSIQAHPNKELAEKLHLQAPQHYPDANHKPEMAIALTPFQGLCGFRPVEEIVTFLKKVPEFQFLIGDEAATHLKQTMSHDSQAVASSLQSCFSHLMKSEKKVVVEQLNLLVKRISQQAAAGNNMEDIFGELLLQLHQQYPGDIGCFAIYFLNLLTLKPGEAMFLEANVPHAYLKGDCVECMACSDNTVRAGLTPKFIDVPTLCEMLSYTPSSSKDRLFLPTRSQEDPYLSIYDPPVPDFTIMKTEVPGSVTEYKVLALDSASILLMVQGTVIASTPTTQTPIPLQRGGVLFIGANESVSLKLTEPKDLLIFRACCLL

Leucine aminopeptidase = molecular target: T10, Leucine aminopeptidase (Plasmodium falciparum 3D7, UniProt Q8IL11); test: P. falciparum M17LAP inhibitors, primary screen, biochemical, fluorogenic H-Leu-NHMec substrate, 1536-well (AID 1619); format: functional
T10 sequence (Q8IL11 whole entry): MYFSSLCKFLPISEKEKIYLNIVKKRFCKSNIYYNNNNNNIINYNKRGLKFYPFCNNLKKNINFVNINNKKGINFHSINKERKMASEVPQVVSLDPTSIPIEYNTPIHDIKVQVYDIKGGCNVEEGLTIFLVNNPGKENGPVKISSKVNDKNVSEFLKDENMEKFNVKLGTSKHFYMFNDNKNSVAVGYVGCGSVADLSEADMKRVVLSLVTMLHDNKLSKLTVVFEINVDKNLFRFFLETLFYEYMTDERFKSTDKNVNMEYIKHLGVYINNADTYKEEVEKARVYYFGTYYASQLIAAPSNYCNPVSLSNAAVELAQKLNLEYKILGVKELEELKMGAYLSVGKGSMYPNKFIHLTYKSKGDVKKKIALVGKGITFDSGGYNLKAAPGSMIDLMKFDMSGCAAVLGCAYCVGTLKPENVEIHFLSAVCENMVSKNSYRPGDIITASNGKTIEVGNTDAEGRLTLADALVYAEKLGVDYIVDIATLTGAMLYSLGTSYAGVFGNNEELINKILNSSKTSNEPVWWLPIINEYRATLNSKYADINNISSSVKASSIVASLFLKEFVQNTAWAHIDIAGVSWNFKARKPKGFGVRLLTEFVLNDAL

Procathepsin L = Procathepsin L (Homo sapiens, UniProt P07711); test: cathepsin L inhibitors, dose response, counter-screen for M1/M17 aminopeptidase inhibitor project, biochemical, QFRET, 1536-well (AID 2214)
Phosphomannomutase 2 = Phosphomannomutase 2 (Homo sapiens, UniProt O15305); test: Counter screen SAR assay for PMM2 inhibitors via a fluorescence intensity assay. [Related pubchem assays (depositor defined):AID1545, AID1574]
[14] = molecular target: DNA dC->dU-editing enzyme APOBEC-3A (Homo sapiens, UniProt P31941); test: APOBEC3A DNA deaminase inhibitors, dose response, biochemical (AID 504722); format: functional
Cytochrome P450 2D6 = Cytochrome P450 2D6 (Homo sapiens, UniProt P10635);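 note: CYP2D6 member of a cytochrome P450 panel assay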
Cytochrome P450 3A4 = Cytochrome P450 3A4 (Homo sapiens, UniProt P08684);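 note: CYP3A4 tested as one member of a cytochrome P450 panel screen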
Sequence of Cytochrome P450 3A4 (P08684 whole entry): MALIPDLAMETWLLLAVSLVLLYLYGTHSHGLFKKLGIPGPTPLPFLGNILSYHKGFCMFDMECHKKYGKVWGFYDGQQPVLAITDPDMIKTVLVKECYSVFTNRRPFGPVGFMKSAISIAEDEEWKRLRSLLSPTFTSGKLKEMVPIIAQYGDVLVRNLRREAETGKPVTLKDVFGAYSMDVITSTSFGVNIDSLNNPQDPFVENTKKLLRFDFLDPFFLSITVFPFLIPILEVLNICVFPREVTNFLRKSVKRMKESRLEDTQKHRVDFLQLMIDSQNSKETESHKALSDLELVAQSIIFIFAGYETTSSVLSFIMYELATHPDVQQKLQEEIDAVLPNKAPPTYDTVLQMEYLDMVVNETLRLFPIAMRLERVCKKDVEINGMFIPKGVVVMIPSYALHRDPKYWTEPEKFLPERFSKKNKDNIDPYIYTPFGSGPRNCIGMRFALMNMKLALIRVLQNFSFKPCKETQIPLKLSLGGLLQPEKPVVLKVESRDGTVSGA

T2 sequence (P09923 whole entry): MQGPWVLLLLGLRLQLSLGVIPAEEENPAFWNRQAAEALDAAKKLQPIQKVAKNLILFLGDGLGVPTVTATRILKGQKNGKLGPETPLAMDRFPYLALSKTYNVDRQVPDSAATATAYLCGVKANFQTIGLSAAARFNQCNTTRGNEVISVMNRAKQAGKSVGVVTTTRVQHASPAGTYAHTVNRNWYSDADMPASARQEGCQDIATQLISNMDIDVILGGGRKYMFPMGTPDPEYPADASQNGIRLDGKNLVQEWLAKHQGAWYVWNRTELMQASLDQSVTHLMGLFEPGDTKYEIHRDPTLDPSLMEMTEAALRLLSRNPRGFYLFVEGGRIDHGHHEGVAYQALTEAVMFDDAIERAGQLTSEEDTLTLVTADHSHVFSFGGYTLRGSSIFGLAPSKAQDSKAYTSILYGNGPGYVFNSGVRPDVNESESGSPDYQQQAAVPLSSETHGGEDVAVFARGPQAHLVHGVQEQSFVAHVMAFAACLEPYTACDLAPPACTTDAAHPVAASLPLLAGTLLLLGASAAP
Sequence of Cytochrome P450 2C19 (P33261 whole entry): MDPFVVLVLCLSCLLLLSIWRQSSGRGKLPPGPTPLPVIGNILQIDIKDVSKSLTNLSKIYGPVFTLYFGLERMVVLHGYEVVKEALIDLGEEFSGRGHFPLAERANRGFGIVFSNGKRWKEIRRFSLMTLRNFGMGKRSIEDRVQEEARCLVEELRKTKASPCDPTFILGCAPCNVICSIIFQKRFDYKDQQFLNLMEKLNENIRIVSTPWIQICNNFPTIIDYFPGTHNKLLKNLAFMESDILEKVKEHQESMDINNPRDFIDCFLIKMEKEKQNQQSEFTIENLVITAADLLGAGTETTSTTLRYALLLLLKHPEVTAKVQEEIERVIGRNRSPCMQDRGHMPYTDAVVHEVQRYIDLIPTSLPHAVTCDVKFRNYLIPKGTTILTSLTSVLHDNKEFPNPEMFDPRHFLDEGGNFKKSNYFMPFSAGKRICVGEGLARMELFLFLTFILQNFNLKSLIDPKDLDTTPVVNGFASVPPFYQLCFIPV
Sequence of Phosphomannomutase 2 (O15305 whole entry): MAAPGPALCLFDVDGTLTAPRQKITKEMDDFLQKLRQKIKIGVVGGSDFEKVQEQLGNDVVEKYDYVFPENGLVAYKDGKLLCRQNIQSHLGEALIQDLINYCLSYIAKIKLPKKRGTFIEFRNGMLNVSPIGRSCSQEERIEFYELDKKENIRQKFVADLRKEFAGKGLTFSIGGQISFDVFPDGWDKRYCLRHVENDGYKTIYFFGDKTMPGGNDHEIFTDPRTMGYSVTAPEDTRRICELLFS
Sequence of Cytochrome P450 2D6 (P10635 whole entry): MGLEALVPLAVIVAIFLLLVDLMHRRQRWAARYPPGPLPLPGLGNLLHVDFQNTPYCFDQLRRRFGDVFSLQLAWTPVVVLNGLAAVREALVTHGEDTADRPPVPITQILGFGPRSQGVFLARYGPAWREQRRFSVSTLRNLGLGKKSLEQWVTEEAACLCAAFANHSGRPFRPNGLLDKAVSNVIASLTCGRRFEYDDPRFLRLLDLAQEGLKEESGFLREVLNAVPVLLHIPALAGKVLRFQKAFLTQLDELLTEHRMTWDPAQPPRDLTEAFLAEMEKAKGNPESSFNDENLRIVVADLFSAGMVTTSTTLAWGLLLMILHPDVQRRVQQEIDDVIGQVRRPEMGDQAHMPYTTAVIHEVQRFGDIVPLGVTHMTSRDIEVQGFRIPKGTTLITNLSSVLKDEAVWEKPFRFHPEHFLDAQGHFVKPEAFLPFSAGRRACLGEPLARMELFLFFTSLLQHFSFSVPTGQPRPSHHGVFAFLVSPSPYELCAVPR
Sequence of Intestinal-type alkaline phosphatase (Mus musculus, UniProt P24822) (P24822 whole entry): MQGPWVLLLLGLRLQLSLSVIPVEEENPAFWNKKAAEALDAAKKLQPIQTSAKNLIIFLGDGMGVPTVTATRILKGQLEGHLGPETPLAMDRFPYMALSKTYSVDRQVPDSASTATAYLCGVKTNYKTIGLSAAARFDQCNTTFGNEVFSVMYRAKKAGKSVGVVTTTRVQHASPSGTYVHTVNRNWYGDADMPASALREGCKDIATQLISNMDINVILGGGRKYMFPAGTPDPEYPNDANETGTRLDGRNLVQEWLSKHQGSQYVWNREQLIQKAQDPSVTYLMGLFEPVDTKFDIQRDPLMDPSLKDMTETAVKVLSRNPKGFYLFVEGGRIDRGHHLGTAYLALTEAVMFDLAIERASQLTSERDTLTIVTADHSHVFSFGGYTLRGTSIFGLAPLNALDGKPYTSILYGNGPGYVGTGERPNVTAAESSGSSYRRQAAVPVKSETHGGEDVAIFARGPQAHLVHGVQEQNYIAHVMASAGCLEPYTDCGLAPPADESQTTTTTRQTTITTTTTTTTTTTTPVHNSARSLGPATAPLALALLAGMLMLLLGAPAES
Sequence of UDP-galactopyranose mutase (P9WIQ1 whole entry): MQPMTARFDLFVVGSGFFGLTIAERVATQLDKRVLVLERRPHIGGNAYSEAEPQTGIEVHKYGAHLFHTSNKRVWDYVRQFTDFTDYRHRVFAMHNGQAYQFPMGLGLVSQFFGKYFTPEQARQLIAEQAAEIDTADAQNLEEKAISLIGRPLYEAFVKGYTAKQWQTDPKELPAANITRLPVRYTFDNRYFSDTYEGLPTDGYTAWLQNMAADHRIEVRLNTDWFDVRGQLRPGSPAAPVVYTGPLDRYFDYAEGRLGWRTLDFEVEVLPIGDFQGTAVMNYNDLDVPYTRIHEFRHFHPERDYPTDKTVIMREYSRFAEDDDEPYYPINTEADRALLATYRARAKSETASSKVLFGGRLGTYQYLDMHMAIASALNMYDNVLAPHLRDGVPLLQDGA
Sequence of Procathepsin L (P07711 whole entry): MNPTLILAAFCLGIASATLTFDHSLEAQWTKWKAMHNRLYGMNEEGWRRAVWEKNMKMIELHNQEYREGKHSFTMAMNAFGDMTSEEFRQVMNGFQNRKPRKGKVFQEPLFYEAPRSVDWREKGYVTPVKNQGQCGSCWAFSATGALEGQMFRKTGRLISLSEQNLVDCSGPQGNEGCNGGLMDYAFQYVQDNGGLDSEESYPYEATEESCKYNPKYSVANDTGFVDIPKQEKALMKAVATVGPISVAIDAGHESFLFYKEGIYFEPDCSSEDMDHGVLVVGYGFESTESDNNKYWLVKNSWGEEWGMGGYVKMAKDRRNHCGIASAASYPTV
Sequence of DNA dC->dU-editing enzyme APOBEC-3A (P31941 whole entry): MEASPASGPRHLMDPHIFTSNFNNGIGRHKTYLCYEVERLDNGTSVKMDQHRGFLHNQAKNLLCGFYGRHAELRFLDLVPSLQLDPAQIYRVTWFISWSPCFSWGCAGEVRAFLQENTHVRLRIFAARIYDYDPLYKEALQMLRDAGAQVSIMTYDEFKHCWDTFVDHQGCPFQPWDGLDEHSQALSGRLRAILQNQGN

## c1ccc(CSCCc2ccncc2)cc1
[1]
  IC50: 47.9 µM (active)
[2]
  IC50: 23.1 µM (inactive)
[3]
  IC50: > 100 µM (inactive)
[4]
  IC50: 23.4 µM (active)

## Cc1ccc(Cl)c2c(N=Nc3ccccc3)c(O)[nH]c12
[5]
  AC50: 113 µM (active)
[6]
  EC50: 19.1 µM (active)
[7]
  EC50: 18.6 µM (active)
[8]
  EC50: > 300 µM (inconclusive)
[9]
  EC50: 8.15 µM (active)

## CCCCN=C(S)N=Nc1c(O)n(Cc2ccccc2)c2ccccc12
[10]
  AC50: 61.5 µM (active)
CAAX prenyl protease 2
  AC50: 0.601 µM (active)
[11]
  AC50: 119 µM (active)

## CCOC(=O)[C@H](CCc1ccccc1)N[C@@H](C)C(=O)N1[C@H](C(=O)O)C[C@H]2CCC[C@@H]21
Cytochrome P450 2C19
  AC50: inactive
Cytochrome P450 1A2
  AC50: inactive

## CCn1cc(CN2CCCC(C(=O)c3cccc(C(F)(F)F)c3)C2)cn1 (centres undefined)
[12]
  EC50: 0.25 µM (active)

## Sc1n[nH]c(-c2ccccc2Br)n1
Escherichia coli
  AC50: 30.2 µM (active)
Aspartyl aminopeptidase
  IC50: 19.3 µM (not active)
[13]
  IC50: 37.6 µM (active)
Leucine aminopeptidase
  IC50: 4.67 µM (active)
Procathepsin L
  IC50: > 59.6 µM (not active)
Phosphomannomutase 2
  IC50: > 100 µM (inactive)
[14]
  IC50: > 100 µM (inactive)

## O=C(c1cccc(F)c1)N1CCC2(CC1)CCN(c1ccccn1)CC2
Cytochrome P450 2D6
  AC50: 20 µM (inconclusive)
Cytochrome P450 3A4
  AC50: inconclusive
